This is an account of results in US11613527B2, “Enzyme inhibitors” (KalVista Pharmaceuticals Limited, priority 2019, dated 2023).

One series deals with Human FXIa (Homo sapiens (Human), UniProt P03951). As to the kind of experiment: Determination of the % inhibition for FXIa (fluorogenic substrate Z-Gly-Pro-Arg-AFC; 40 μM or IC50). It is filed as biochemical. The essentials: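 Human FXIa incubated at 25 °C with fluorogenic substrate Z-Gly-Pro-Arg-AFC and test compound at 40 μM for % inhibition, or a concentration series for IC50. Residual activity taken as initial rate from absorbance change at 410 nm.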

A short description of series [1]: Solubility after 24 hrs in Fasted State Simulated Intestinal Fluid (FaSSIF). It is filed as physicochemical. Conditions: Fasted State Simulated Intestinal Fluid (FaSSIF), thermodynamic from solid, 24 hrs at 37° C., nominal concentration 1 mg/mL (as free base). The essentials:
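Compound at nominal 1 mg/mL (as free base) in freshly prepared FaSSIF, shaken 24 h at 37 °C, ~500 rpm. After centrifugation at 15,000 g for 10 min at 37 °C, dissolved concentration measured by LCMS.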

A further series deals with Human plasma kallikrein (Homo sapiens (Human), UniProt P03952). The series can be described thus: Determination of the IC50 for plasma kallikrein (fluorogenic substrate H-DPro-Phe-Arg-AFC). It is filed as biochemical. Conditions: class symbols A-D, read-out: IC50 (human PKal). In a few lines:
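Enzyme from a commercial source was incubated at 25° C. with H-DPro-Phe-Arg-AFC substrate and a range of test compound concentrations. Residual activity was taken as the initial reaction rate, followed by absorbance change at 410 nm, and IC50 values were derived from it.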

Series [2] is described as follows: Pharmacokinetics following a single oral dose in male Sprague-Dawley rats. Conditions: rat, nominal 5 mg/kg in 10% DMSO/10% cremophor/80% SWFI, plasma. It is filed as in vivo. The procedure:
Pharmacokinetic studies of the compounds in Table 14 were performed to assess the pharmacokinetics following a single oral dose in male Sprague-Dawley rats. Two rats were given a single po dose of 5 mL/kg of a nominal 1 mg/mL (5 mg/kg) composition of test compound in 10% DMSO/10% cremophor/80% SWFI vehicle. Following dosing, blood samples were collected over a period of […]. Sample times were 5, 15 and 30 minutes then 1, 2, 4, 6, 8 and 12 hours. Following collection, blood samples were centrifuged and the plasma fraction analysed for concentration of test compound by LCMS.

A further series deals with Human KLK1 (Homo sapiens (Human), UniProt P06870). The series can be described thus: Determination of the IC50 for KLK1 (fluorogenic substrate H-DVal-Leu-Arg-AFC). It is filed as biochemical. In a few lines:
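Human KLK1 incubated at 25° C. with fluorogenic substrate H-DVal-Leu-Arg-AFC and a range of test compound concentrations. Residual activity taken as initial reaction rate from absorbance change at 410 nm; IC50 derived from these rates.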

Structures are written as SMILES. Converted amounts (≈) assume the structure as drawn.

Human FXIa, sequence (P03951 388-625): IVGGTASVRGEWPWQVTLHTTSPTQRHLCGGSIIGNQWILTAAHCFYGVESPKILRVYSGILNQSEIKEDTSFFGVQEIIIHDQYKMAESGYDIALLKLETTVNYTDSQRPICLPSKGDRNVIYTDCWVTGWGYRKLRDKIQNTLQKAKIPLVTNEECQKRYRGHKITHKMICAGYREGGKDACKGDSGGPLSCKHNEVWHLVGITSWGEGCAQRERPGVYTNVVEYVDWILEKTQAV
Human FXIa, sequence (P03951 19-387 partner): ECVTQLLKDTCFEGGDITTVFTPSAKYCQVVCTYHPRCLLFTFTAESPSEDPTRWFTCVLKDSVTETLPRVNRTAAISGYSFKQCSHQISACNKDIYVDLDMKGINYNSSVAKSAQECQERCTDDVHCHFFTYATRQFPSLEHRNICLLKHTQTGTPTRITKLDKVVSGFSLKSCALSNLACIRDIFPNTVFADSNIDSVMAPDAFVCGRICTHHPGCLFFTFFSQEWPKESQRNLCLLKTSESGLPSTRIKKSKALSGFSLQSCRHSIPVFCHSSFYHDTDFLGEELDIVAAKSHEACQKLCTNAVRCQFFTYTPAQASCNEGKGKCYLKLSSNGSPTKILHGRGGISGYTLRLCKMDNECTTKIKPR
Human plasma kallikrein, sequence (P03952 391-638): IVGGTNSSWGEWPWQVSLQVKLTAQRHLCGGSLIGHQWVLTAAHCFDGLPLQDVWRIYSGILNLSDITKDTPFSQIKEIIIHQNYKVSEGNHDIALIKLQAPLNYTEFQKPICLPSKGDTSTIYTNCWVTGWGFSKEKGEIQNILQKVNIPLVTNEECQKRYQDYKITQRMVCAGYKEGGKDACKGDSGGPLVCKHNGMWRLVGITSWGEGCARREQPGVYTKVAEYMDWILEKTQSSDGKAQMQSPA
Human plasma kallikrein, sequence (P03952 20-390 partner): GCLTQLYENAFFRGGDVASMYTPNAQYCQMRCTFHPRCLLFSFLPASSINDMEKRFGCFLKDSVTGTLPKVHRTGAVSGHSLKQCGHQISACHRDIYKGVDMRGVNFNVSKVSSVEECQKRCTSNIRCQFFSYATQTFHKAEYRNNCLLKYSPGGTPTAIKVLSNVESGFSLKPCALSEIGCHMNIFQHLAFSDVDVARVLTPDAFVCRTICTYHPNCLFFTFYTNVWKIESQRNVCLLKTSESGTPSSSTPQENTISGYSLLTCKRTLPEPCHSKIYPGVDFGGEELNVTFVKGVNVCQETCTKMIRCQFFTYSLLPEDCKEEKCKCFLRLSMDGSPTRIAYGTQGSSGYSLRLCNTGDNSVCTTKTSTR
Human KLK1, sequence (P06870 25-262): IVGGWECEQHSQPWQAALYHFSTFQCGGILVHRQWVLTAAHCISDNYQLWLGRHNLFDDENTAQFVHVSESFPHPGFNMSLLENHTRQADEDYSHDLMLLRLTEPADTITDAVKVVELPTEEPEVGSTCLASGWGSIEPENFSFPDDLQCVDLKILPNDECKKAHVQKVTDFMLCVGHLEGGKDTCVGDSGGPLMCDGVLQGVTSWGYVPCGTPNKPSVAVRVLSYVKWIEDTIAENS

As a reminder, the IC50 is the midpoint of a concentration-inhibition curve. The term solubility denotes the concentration that dissolves in the medium under given conditions. Low values mean a poorly soluble substance, high ones a readily soluble substance. Usually Cmax stands for the highest concentration seen after dosing. On to `COCc1nn(Cc2ccc3c(c2)CCN(C(C)C)C3)cc1C(=O)NCc1c(-n2ccc(C#N)n2)ccc(OC)c1F` [Example 46, N-{[6-(3-cyanopyrazol-1-yl)-2-fluoro-3-methoxyphenyl]methyl}-1-[(2-isopropyl-3,4-dihydro-1H-isoquinolin-6-yl)methyl]-3-(methoxymethyl)pyrazole-4-carboxamide], for which the IC50 against Human FXIa is above 40 µM; on Human plasma kallikrein, below 0.01 µM; on Human KLK1 it was above 40 µM. Also, in series [1], the solubility at 24 h is above 1000 µg/mL. Further, the Cmax in series [2] is 34 ng/mL.

In the case of `COCc1nn(Cc2ccc3c(c2)CN(C)C3)cc1C(=O)NCc1c(-n2cc(C)nn2)ccc(OC)c1F` [Example 54, N-{[2-fluoro-3-methoxy-6-(4-methyl-1,2,3-triazol-1-yl)phenyl]methyl}-3-(methoxymethyl)-1-[(2-methyl-1,3-dihydroisoindol-5-yl)methyl]pyrazole-4-carboxamide], the IC50 at Human FXIa was above 4 µM; on Human plasma kallikrein, below 0.01 µM; on Human KLK1 it was above 4 µM. This molecule also had a solubility at 24 h in series [1] of 820 µg/mL (≈ 1580 µM). In series [2], this molecule returned a maximum concentration (Cmax) of 154 ng/mL.

Turning to `COCc1nn(Cc2ccc3c(c2)CN(C)CC32CC2)cc1C(=O)NCc1c(-n2cc(C)nn2)ccc(OC)c1F` [Example 126, N-{[2-fluoro-3-methoxy-6-(4-methyl-1,2,3-triazol-1-yl)phenyl]methyl}-3-(methoxymethyl)-1-{2′-methyl-1′,3′-dihydrospiro[cyclopropane-1,4′-isoquinoline]-7′-ylmethyl}pyrazole-4-carboxamide], the IC50 against Human FXIa is above 40 µM; on Human plasma kallikrein, below 0.01 µM; at Human KLK1, above 40 µM. The molecule also returned a solubility at 24 h in series [1] of 880 µg/mL (≈ 1570 µM). This molecule gave a Cmax in series [2] of 63 ng/mL.

On to `COCc1nn(Cc2ccc3c(c2)CNCC32CC2)cc1C(=O)NCc1c(-n2cc(C)nn2)ccc(OC)c1F` [Example 127, 1-{2′,3′-dihydro-1′H-spiro[cyclopropane-1,4′-isoquinoline]-7′-ylmethyl}-N-{[2-fluoro-3-methoxy-6-(4-methyl-1,2,3-triazol-1-yl)phenyl]methyl}-3-(methoxymethyl)pyrazole-4-carboxamide], for which the IC50 is above 40 µM at Human FXIa, below 0.01 µM on Human plasma kallikrein and above 40 µM against Human KLK1. The molecule also registered a solubility at 24 h in series [1] of 810 µg/mL (≈ 1480 µM). The same molecule yielded a peak concentration (Cmax) in series [2] of 9 ng/mL.
